From the supplement of paper PMC10307832

Legend:
Test in all cases: relative viability (nuclei count vs DMSO), 5 days (fraction); higher = more cells survive
[1] = tested on: ABC-1
Procedure, shortened: (§1)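 Lung cancer cell lines were seeded in 1536-well plates and dosed by pin tool the next day, with either a single drug or a fixed anchor-drug dose combined with five library-drug doses (not always all listed) spaced in √10 steps. Five days later, one step fixed the cells and stained their nuclei (final 0.05% Triton X-100, 1% formaldehyde, 1 ug/ml Hoechst), and nuclei were counted on 4× images. Relative viability is the nuclei count in treated wells divided by the count in vehicle wells, and each value is the median of duplicate plates.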

[2] = tested on: BEN
Procedure, shortened: as §1

[3] = tested on: EPLC-272H
Procedure, shortened: as §1

[4] = tested on: HCC-827
Procedure, shortened: as §1

[5] = tested on: HOP-62
Procedure, shortened: as §1

[6] = tested on: LU99A
Procedure, shortened: as §1

[7] = tested on: NCI-H1355
Procedure, shortened: as §1

[8] = tested on: NCI-H1563
Procedure, shortened: as §1

[9] = tested on: NCI-H1666
Procedure, shortened: as §1

[10] = tested on: NCI-H1975
Procedure, shortened: as §1

[11] = tested on: NCI-H2170
Procedure, shortened: as §1

[12] = tested on: NCI-H23
Procedure, shortened: as §1

[13] = tested on: NCI-H2405
Procedure, shortened: as §1

[14] = tested on: NCI-H3122
Procedure, shortened: as §1

[15] = tested on: NCI-H322M
Procedure, shortened: as §1

[16] = tested on: NCI-H358
Procedure, shortened: as §1

[17] = tested on: NCI-H520
Procedure, shortened: as §1

[18] = tested on: NCI-H596
Procedure, shortened: as §1

[19] = tested on: NCI-H647
Procedure, shortened: as §1

[20] = tested on: NCI-H727
Procedure, shortened: as §1

[21] = tested on: NCI-H838
Procedure, shortened: as §1

[22] = tested on: PC-14
Procedure, shortened: as §1

[23] = tested on: SW 900
Procedure, shortened: as §1

[24] = tested on: UMC-11
Procedure, shortened: as §1

`CCCCCCCCCCCC1=C(O)C(=O)C=C(O)C1=O` [Embelin] + COc1cc2c(Oc3ccc(NC(=O)C4(C(=O)Nc5ccc(F)cc5)CC4)cc3F)ccnc2cc1OCCCN1CCOCC1 [Foretinib] (partner 0.25 µM) gave a relative viability ([1]; first compound 0.08 µM) of 1.17, a relative viability ([1]; first compound 0.8 µM) of 1.12 and a relative viability ([1]; first compound 2.53 µM) of 1.05. It also gave a relative viability ([1]; first compound 8 µM) of 1.08, a relative viability ([2]; first compound 0.08 µM) of 0.681 and a relative viability ([2]; first compound 0.8 µM) of 0.954. The relative viability ([2]; first compound 2.53 µM) was 0.677, the relative viability ([2]; first compound 8 µM) was 0.867 and the relative viability ([3]; first compound 0.08 µM) was 0.736. It also gave a relative viability ([3]; first compound 0.8 µM) of 0.866, a relative viability ([3]; first compound 2.53 µM) of 0.916 and a relative viability ([3]; first compound 8 µM) of 0.65. For the same compound, the relative viability ([4]; first compound 0.08 µM) was 0.993, the relative viability ([4]; first compound 0.8 µM) was 1.11 and the relative viability ([4]; first compound 2.53 µM) was 1.03. For the same compound, the relative viability ([4]; first compound 8 µM) was 1.16, the relative viability ([5]; first compound 0.08 µM) was 1.27 and the relative viability ([5]; first compound 0.8 µM) was 1.18. The relative viability ([5]; first compound 2.53 µM) was 1.23, the relative viability ([5]; first compound 8 µM) was 1.25 and the relative viability ([6]; first compound 0.08 µM) was 0.907. It also gave a relative viability ([6]; first compound 0.8 µM) of 0.934, a relative viability ([6]; first compound 2.53 µM) of 0.864 and a relative viability ([6]; first compound 8 µM) of 0.766. It also gave a relative viability ([7]; first compound 0.08 µM) of 0.969, a relative viability ([7]; first compound 0.8 µM) of 1.07 and a relative viability ([7]; first compound 2.53 µM) of 1.21. The relative viability ([7]; first compound 8 µM) was 1.03, the relative viability ([8]; first compound 0.08 µM) was 0.932 and the relative viability ([8]; first compound 0.8 µM) was 1.09. For the same compound, the relative viability ([8]; first compound 2.53 µM) was 0.944, the relative viability ([8]; first compound 8 µM) was 0.896 and the relative viability ([9]; first compound 0.08 µM) was 0.943. For the same compound, the relative viability ([9]; first compound 0.8 µM) was 1.07, the relative viability ([9]; first compound 2.53 µM) was 0.978 and the relative viability ([9]; first compound 8 µM) was 0.941. For the same compound, the relative viability ([10]; first compound 0.08 µM) was 1.06, the relative viability ([10]; first compound 0.8 µM) was 0.97 and the relative viability ([10]; first compound 2.53 µM) was 1.01. For the same compound, the relative viability ([10]; first compound 8 µM) was 1.07, the relative viability ([11]; first compound 0.08 µM) was 0.539 and the relative viability ([11]; first compound 0.8 µM) was 1.08. It also gave a relative viability ([11]; first compound 2.53 µM) of 1.06, a relative viability ([11]; first compound 8 µM) of 1 and a relative viability ([12]; first compound 0.08 µM) of 1.02. The relative viability ([12]; first compound 0.8 µM) was 1.09, the relative viability ([12]; first compound 2.53 µM) was 1.07 and the relative viability ([12]; first compound 8 µM) was 1.16. It also gave a relative viability ([13]; first compound 0.08 µM) of 1.15, a relative viability ([13]; first compound 0.8 µM) of 1.14 and a relative viability ([13]; first compound 2.53 µM) of 1.11. It also gave a relative viability ([13]; first compound 8 µM) of 1.06, a relative viability ([14]; first compound 0.08 µM) of 0.98 and a relative viability ([14]; first compound 0.8 µM) of 1.01. For the same compound, the relative viability ([14]; first compound 2.53 µM) was 0.951, the relative viability ([14]; first compound 8 µM) was 1.03 and the relative viability ([15]; first compound 0.08 µM) was 0.938. The relative viability ([15]; first compound 0.8 µM) was 1.22, the relative viability ([15]; first compound 2.53 µM) was 1.03 and the relative viability ([15]; first compound 8 µM) was 0.961. For the same compound, the relative viability ([16]; first compound 0.08 µM) was 0.753, the relative viability ([16]; first compound 0.8 µM) was 0.81 and the relative viability ([16]; first compound 2.53 µM) was 0.976. The relative viability ([16]; first compound 8 µM) was 0.869, the relative viability ([17]; first compound 0.08 µM) was 0.891 and the relative viability ([17]; first compound 0.8 µM) was 0.891. It also gave a relative viability ([17]; first compound 2.53 µM) of 0.878, a relative viability ([17]; first compound 8 µM) of 0.807 and a relative viability ([18]; first compound 0.08 µM) of 0.834. The relative viability ([18]; first compound 0.8 µM) was 0.835, the relative viability ([18]; first compound 2.53 µM) was 1.02 and the relative viability ([18]; first compound 8 µM) was 0.764. It also gave a relative viability ([19]; first compound 0.08 µM) of 1.37, a relative viability ([19]; first compound 0.8 µM) of 1.38 and a relative viability ([19]; first compound 2.53 µM) of 1.28. It also gave a relative viability ([19]; first compound 8 µM) of 1.08, a relative viability ([20]; first compound 0.08 µM) of 0.793 and a relative viability ([20]; first compound 0.8 µM) of 1.13. It also gave a relative viability ([20]; first compound 2.53 µM) of 1.11, a relative viability ([20]; first compound 8 µM) of 0.761 and a relative viability ([21]; first compound 0.08 µM) of 1.08. The relative viability ([21]; first compound 0.8 µM) was 1.11, the relative viability ([21]; first compound 2.53 µM) was 1.06 and the relative viability ([21]; first compound 8 µM) was 1.09. It also gave a relative viability ([22]; first compound 0.08 µM) of 1.05, a relative viability ([22]; first compound 0.8 µM) of 0.992 and a relative viability ([22]; first compound 2.53 µM) of 1.06. It also gave a relative viability ([22]; first compound 8 µM) of 1.08, a relative viability ([23]; first compound 0.08 µM) of 0.89 and a relative viability ([23]; first compound 0.8 µM) of 0.915. It also gave a relative viability ([23]; first compound 2.53 µM) of 1.02, a relative viability ([23]; first compound 8 µM) of 0.876 and a relative viability ([24]; first compound 0.08 µM) of 1.06. For the same compound, the relative viability ([24]; first compound 0.8 µM) was 1.14, the relative viability ([24]; first compound 2.53 µM) was 1.21 and the relative viability ([24]; first compound 8 µM) was 1.28.
